Target: CYP2D6 (Homo sapiens, UniProt P10635)
Experiment: in vitro
Settings: both, microsomes, CYP2D6 Inhibition percentage(%) at Top conc.

Chain of CYP2D6 (P10635 whole entry): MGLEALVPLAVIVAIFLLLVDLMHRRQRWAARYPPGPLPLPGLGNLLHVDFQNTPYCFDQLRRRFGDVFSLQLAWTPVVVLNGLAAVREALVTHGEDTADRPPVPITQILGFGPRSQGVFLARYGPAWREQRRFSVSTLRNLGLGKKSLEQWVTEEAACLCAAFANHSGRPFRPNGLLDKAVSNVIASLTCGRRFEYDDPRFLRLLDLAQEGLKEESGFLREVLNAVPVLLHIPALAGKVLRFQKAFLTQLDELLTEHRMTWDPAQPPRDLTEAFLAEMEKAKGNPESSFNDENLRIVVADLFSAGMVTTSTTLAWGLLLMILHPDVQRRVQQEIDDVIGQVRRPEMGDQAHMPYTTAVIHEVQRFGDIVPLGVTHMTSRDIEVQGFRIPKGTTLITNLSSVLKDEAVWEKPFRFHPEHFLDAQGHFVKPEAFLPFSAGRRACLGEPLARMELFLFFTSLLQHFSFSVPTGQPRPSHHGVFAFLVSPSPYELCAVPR

inhibition at 20 min: 91.7%
Compound: Fc1ccc([C@@H]2CCNC[C@H]2COc2ccc3c(c2)OCO3)cc1 [Paroxetine]

— paper PMC10726475, “Atypical N-Alkyl to N-Noralkoxy Switch in a Dual cSRC/BCR-ABL1 Kinase Inhibitor Improves Drug Efflux and hERG Affinity” (ACS Medicinal Chemistry Letters, 2023)
